Measured values reported in patent US10358463B2, “Immunomodulators” (BRISTOL-MYERS SQUIBB COMPANY, priority 2016, dated 2019).
Numbered stars: 1 amine (or outer) side, 2 acyl side, 3 side chain; on linkers, the order of the positions; unused ones are H or OH. Bridge positions count the residues as written; N and C are the ends. Square brackets hold non-standard residues; d marks the D form. Peptide text beside a SMILES is read from it. ξ: configuration not given here. Trp(1-CH2CONHSO2Me) = CS(=O)(=O)NC(=O)Cn1cc(C[C@H](N)C(=O)O)c2ccccc21; X14 = C[C@H](C(=O)O)n1c(=O)n(C[C@H](N[*:1])C(=O)[*:2])c2ccccc21; X10 = COc1ccc2c(c1)c(C[C@H](N[*:1])C(=O)[*:2])cn2CC(=O)O; X18 = O=C(O)Cn1c(=O)n(C[C@H](N[*:1])C(=O)[*:2])c2ccccc21; X12 = O=C(O)Cc1nn(C[C@H](N[*:1])C(=O)[*:2])c2ccccc12; X5 = O=C(O)Cn1nc(C[C@H](N[*:1])C(=O)[*:2])c2ccccc21; X7 = O=C(O)Cc1nc(C[C@H](N[*:1])C(=O)[*:2])n2ccccc12; X9 = O=C(O)Cn1cc(CC(N[*:1])C(=O)[*:2])c2cnccc21; X15 = O=C([C@H](Cc1n[nH]c2ccccc12)N[*:1])[*:2]; X16 = O=C([C@H](Cc1cccc2ccncc12)N[*:1])[*:2]; Phe(4-Cl) = N[C@@H](Cc1ccc(Cl)cc1)C(=O)O; Phe(4-F) = N[C@@H](Cc1ccc(F)cc1)C(=O)O; Hyp = O=C(O)[C@@H]1C[C@@H](O)CN1; NMeNle = CCCC[C@H](NC)C(=O)O; Pen = CC(C)(S)[C@H](N)C(=O)O; Pip = O=C(O)[C@@H]1CCCCN1; NMeA = CN[C@@H](C)C(=O)O; Dab = NCC[C@H](N)C(=O)O; Dap = NC[C@H](N)C(=O)O; ξP = O=C(O)C1CCCN1

Molecular target: T1, PD-1-Ig binding to PD-L1-TVMV-His (PD-L1-His) (Homo sapiens, UniProt Q9NZQ7)
T1 construct: hPDL1 (19-239)-TVMV-His; TVMV protease cleavage site (C); made in house; host or cells: HEK293T cells
T1 sequence (Q9NZQ7 with tags, fused parts or gaps): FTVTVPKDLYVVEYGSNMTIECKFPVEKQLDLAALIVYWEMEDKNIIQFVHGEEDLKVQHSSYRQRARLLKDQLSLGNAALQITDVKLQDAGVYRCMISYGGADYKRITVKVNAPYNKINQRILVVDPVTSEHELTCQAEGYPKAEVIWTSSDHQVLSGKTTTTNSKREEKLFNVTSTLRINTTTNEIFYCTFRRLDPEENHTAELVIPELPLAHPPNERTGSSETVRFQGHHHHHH
Experiment: PD-1/PD-L1 Homogenous Time-Resolved Fluorescence (HTRF) binding assay
Details: PD-1-Ig (20 nM)/PD-L1-His (10 nM); range class
Excerpt: The ability of the macrocyclic peptides of the present disclosure to bind to PD-L1 was investigated using a PD-1/PD-L1 Homogenous Time-Resolved Fluorescence (HTRF) binding assay.
Homogenous Time-Resolved Fluorescence (HTRF) Assays of Binding of Soluble PD-1 to Soluble PD-L1. Soluble PD-1 and soluble PD-L1 refers to proteins with carboxyl-end truncations that remove the transmembrane-spanning regions and are fused to heterologous sequences, specifically the Fc portion of the human immunoglobuling G sequence (Ig) or the hexahistidine epitope tag (His). All binding studies were performed in an HTRF assay buffer consisting of dPBS supplemented with 0.1% (w/v) bovine serum albumin and 0.05% (v/v) Tween-20. For the PD-1-Ig/PD-L1-His binding assay, inhibitors were pre-incubated with PD-L1-His (10 nM final) for 15 m in 4 μl of assay buffer, followed by addition of PD-1-Ig (20 nM final) in 1 μl of assay buffer and further incubation for 15 m. PD-L1 fusion proteins from either human, cynomologous macaques, mouse, or other species were used. HTRF detection was achieved using europium crypate-labeled anti-Ig monoclonal antibody (1 nM final) and allophycocyanin (APC) labeled anti-His monoclonal antibody (20 nM final). Antibodies were diluted in HTRF detection buffer and 5 μl was dispensed on top of binding reaction. The reaction was allowed to equilibrate for 30 minutes and signal (665 nm/620 nm ratio) was obtained using an EnVision fluorometer. Additional binding assays were established between PD-1-Ig/PD-L2-His (20 and 5 nM, respectively), CD80-His/PD-L1-Ig (100 and 10 nM, respectively) and CD80-His/CTLA4-Ig (10 and 5 nM, respectively). Binding/competition studies between biotinylated Compound No. 71 and human PD-L1-His were performed as follows. Macrocyclic peptide inhibitors were pre-incubated with PD-L1-His (10 nM final) for 60 minutes in 4 μl of assay buffer followed by addition of biotinylated Compound No. 71 (0.5 nM final) in 1 μl of assay buffer. Binding was allowed to equilibrate for 30 minutes followed by addition of europium crylated labeled Streptavidin (2.5 pM final) and APC-labeled anti-His (20 nM final) in 5 μl of HTRF buffer. The reaction was allowed to equilibrate for 30 m and signal (665 nm/620 nm ratio) was obtained using an EnVision fluorometer.
Recombinant Proteins. Carboxyl-truncated human PD-1 (amino acids 25-167) with a C-terminal human Ig epitope tag [hPD-1 (25-167)-3S-IG] and human PD-L1 (amino acids 18-239) with a C-terminal His epitope tag [hPD-L1(19-239)-tobacco vein mottling virus protease cleavage site (TVMV)-His] were expressed in HEK293T cells and purified sequentially by recombinant Protein A affinity chromatography and size exclusion chromatography. Human PD-L2-His (Sino Biologicals), CD80-His (Sino Biologicals), CTLA4-Ig (RnD Systems) were all obtained through commercial sources.

SMILES	IC50
CCCC[C@H]1C(=O)N(C)[C@@H](CCCC)C(=O)N[C@@H](CC(C)C)C(=O)N[C@H](C(=O)NCC(N)=O)CSCC(=O)N[C@@H](Cc2ccc(O)cc2)C(=O)N(C)[C@@H](C)C(=O)N[C@@H](CC(N)=O)C(=O)N2CCC[C@H]2C(=O)N[C@@H](CN)C(=O)N[C@@H](CC(C)C)C(=O)N2C[C@H](O)C[C@H]2C(=O)N[C@@H](Cc2c[nH]c3ccccc23)C(=O)N[C@@H](CCN)C(=O)N[C@@H](Cn2c(=O)n(CC(=O)O)c3ccccc32)C(=O)N1C [Example 1015] ({CH2CO}-Y[NMeA]NP[Dap]L[Hyp]W[Dab][X18][NMeNle][NMeNle]LCG-NH2; thioether N-14)	1 to 9.9 nM
CCCC[C@H]1C(=O)N(C)[C@@H](CCCC)C(=O)N[C@@H](CC(C)C)C(=O)N[C@H](C(=O)NCC(N)=O)CSCC(=O)N[C@@H](Cc2ccc(O)cc2)C(=O)N(C)[C@@H](C)C(=O)N[C@@H](CC(N)=O)C(=O)N2CCC[C@H]2C(=O)N[C@@H](CN)C(=O)N[C@@H](CC(C)C)C(=O)N2C[C@H](O)C[C@H]2C(=O)N[C@@H](Cc2c[nH]c3ccccc23)C(=O)N[C@@H](CCN)C(=O)N[C@@H](Cc2cn(CC(=O)O)c3ccc(OC)cc23)C(=O)N1C [Example 10506] ({CH2CO}-Y[NMeA]NP[Dap]L[Hyp]W[Dab][X10][NMeNle][NMeNle]LCG-NH2; thioether N-14)	1 to 9.9 nM
CCCC[C@H]1C(=O)N(C)[C@@H](CCCC)C(=O)N[C@@H](CC(C)C)C(=O)N[C@H](C(=O)NCC(N)=O)CSCC(=O)N[C@@H](Cc2ccc(O)cc2)C(=O)N(C)[C@@H](C)C(=O)N[C@@H](CC(N)=O)C(=O)N2CCC[C@H]2C(=O)N[C@@H](CN)C(=O)N[C@@H](CC(C)C)C(=O)N2C[C@H](O)C[C@H]2C(=O)N[C@@H](Cc2c[nH]c3ccccc23)C(=O)N[C@@H](CCN)C(=O)N[C@@H](Cn2nc(CC(=O)O)c3ccccc32)C(=O)N1C [Example 1012] ({CH2CO}-Y[NMeA]NP[Dap]L[Hyp]W[Dab][X12][NMeNle][NMeNle]LCG-NH2; thioether N-14)	10 to 99 nM
CCCC[C@H]1C(=O)N(C)[C@@H](CCCC)C(=O)N[C@@H](CC(C)C)C(=O)N[C@H](C(N)=O)C(C)(C)SCC(=O)N[C@@H](Cc2ccc(Cl)cc2)C(=O)N2CCCC[C@H]2C(=O)N[C@@H](CC(=O)O)C(=O)N2CCC[C@H]2C(=O)N[C@@H](CN)C(=O)N[C@@H](CCC(=O)O)C(=O)N2C[C@H](O)C[C@H]2C(=O)N[C@@H](Cc2c[nH]c3ccccc23)C(=O)N[C@@H](CCN)C(=O)N[C@@H](Cc2cn(CC(=O)NS(C)(=O)=O)c3ccccc23)C(=O)N1C [Example 1005] ({CH2CO}-[Phe(4-Cl)][Pip]DP[Dap]E[Hyp]W[Dab][Trp(1-CH2CONHSO2Me)][NMeNle][NMeNle]L[Pen]-NH2; thioether N-14)	1 to 9.9 nM
CCCC[C@H]1C(=O)N(C)[C@@H](CCCC)C(=O)N[C@@H](CC(C)C)C(=O)N[C@H](C(=O)NCC(N)=O)CSCC(=O)N[C@@H](Cc2ccc(O)cc2)C(=O)N(C)[C@@H](C)C(=O)N[C@@H](CC(N)=O)C(=O)N2CCC[C@H]2C(=O)N[C@@H](CN)C(=O)N[C@@H](CC(C)C)C(=O)N2C[C@H](O)C[C@H]2C(=O)N[C@@H](Cc2c[nH]c3ccccc23)C(=O)N[C@@H](CCN)C(=O)N[C@@H](Cc2nc(CC(=O)O)c3ccccn23)C(=O)N1C [Example 1017] ({CH2CO}-Y[NMeA]NP[Dap]L[Hyp]W[Dab][X7][NMeNle][NMeNle]LCG-NH2; thioether N-14)	1 to 9.9 nM
CCCC[C@H]1C(=O)N(C)[C@@H](CCCC)C(=O)N[C@@H](CC(C)C)C(=O)N[C@H](C(N)=O)CSCC(=O)N[C@@H](Cc2ccc(O)cc2)C(=O)N(C)[C@@H](C)C(=O)N[C@@H](CC(N)=O)C(=O)N2CCC[C@H]2C(=O)N[C@@H](CN)C(=O)N[C@@H](CC(C)C)C(=O)N2C[C@H](O)C[C@H]2C(=O)N[C@@H](Cc2c[nH]c3ccccc23)C(=O)N[C@@H](CCN)C(=O)N[C@@H](Cc2nn(CC(=O)O)c3ccccc23)C(=O)N1C [Example 10501] ({CH2CO}-Y[NMeA]NP[Dap]L[Hyp]W[Dab][X5][NMeNle][NMeNle]LC-NH2; thioether N-14)	1 to 9.9 nM
CCCC[C@H]1C(=O)N(C)[C@@H](CCCC)C(=O)N[C@@H](C)C(=O)N[C@H](C(=O)NCC(N)=O)CSCC(=O)N[C@@H](Cc2ccc(O)cc2)C(=O)N(C)[C@@H](C)C(=O)N[C@@H](CC(N)=O)C(=O)N2CCCC2C(=O)N[C@@H](Cc2cnc[nH]2)C(=O)N[C@@H](CCC(N)=O)C(=O)N2C[C@H](O)C[C@H]2C(=O)N[C@@H](Cc2c[nH]c3ccccc23)C(=O)N[C@@H](CO)C(=O)N[C@@H](Cc2n[nH]c3ccccc23)C(=O)N1C (stereo partly drawn) [Example 1286] ({CH2CO}-Y[NMeA]N[ξP]HQ[Hyp]WS[X15][NMeNle][NMeNle]ACG-NH2; thioether N-14)	100 to 990 nM
CCCC[C@H]1C(=O)N(C)[C@@H](CCCC)C(=O)N[C@@H](CC(C)C)C(=O)N[C@H](C(=O)NCC(N)=O)CSCC(=O)N[C@@H](Cc2ccc(O)cc2)C(=O)N(C)[C@@H](C)C(=O)N[C@@H](CC(N)=O)C(=O)N2CCC[C@H]2C(=O)N[C@@H](CN)C(=O)N[C@@H](CC(C)C)C(=O)N2C[C@H](O)C[C@H]2C(=O)N[C@@H](Cc2c[nH]c3ccccc23)C(=O)N[C@@H](CCN)C(=O)NC(Cc2cn(CC(=O)O)c3ccncc23)C(=O)N1C (stereo partly drawn) [Example 10001] ({CH2CO}-Y[NMeA]NP[Dap]L[Hyp]W[Dab][X9][NMeNle][NMeNle]LCG-NH2; thioether N-14)	10 to 99 nM
CCCC[C@H]1C(=O)N(C)[C@@H](CCCC)C(=O)N[C@@H](CC(C)C)C(=O)N[C@H](C(N)=O)C(C)(C)SCC(=O)N[C@@H](Cc2ccc(OC)cc2)C(=O)N2CCCC[C@H]2C(=O)N[C@@H](CC(=O)O)C(=O)N2CCC[C@H]2C(=O)N[C@@H](Cc2cnc[nH]2)C(=O)N[C@@H](CCC(=O)O)C(=O)N2C[C@H](O)C[C@H]2C(=O)N[C@@H](Cc2c[nH]c3ccccc23)C(=O)N[C@@H](CCN)C(=O)N[C@@H](Cc2cn(CC(=O)NS(C)(=O)=O)c3ccccc23)C(=O)N1C [Example 1007] ({CH2CO}-Y(Me)[Pip]DPHE[Hyp]W[Dab][Trp(1-CH2CONHSO2Me)][NMeNle][NMeNle]L[Pen]-NH2; thioether N-14)	1 to 9.9 nM
CCCC[C@H]1C(=O)N(C)[C@@H](CCCC)C(=O)N[C@@H](CC(C)C)C(=O)N[C@H](C(=O)NCC(N)=O)CSCC(=O)N[C@@H](Cc2ccc(O)cc2)C(=O)N(C)[C@@H](C)C(=O)N[C@@H](CC(N)=O)C(=O)N2CCC[C@H]2C(=O)N[C@@H](CN)C(=O)N[C@@H](CC(C)C)C(=O)N2C[C@H](O)C[C@H]2C(=O)N[C@@H](Cc2c[nH]c3ccccc23)C(=O)N[C@@H](CCN)C(=O)N[C@@H](Cn2c(=O)n([C@H](C)C(=O)O)c3ccccc32)C(=O)N1C [Example 1014] ({CH2CO}-Y[NMeA]NP[Dap]L[Hyp]W[Dab][X14][NMeNle][NMeNle]LCG-NH2; thioether N-14)	1 to 9.9 nM
CCCC[C@H]1C(=O)N(C)[C@@H](CCCC)C(=O)N[C@@H](CC(C)C)C(=O)N[C@H](C(N)=O)C(C)(C)SCC(=O)N[C@@H](Cc2ccc(F)cc2)C(=O)N2CCCC[C@H]2C(=O)N[C@@H](CC(=O)O)C(=O)N2CCC[C@H]2C(=O)N[C@@H](CN)C(=O)N[C@@H](CCC(=O)O)C(=O)N2C[C@H](O)C[C@H]2C(=O)N[C@@H](Cc2c[nH]c3ccccc23)C(=O)N[C@@H](CCN)C(=O)N[C@@H](Cc2cn(CC(=O)NS(C)(=O)=O)c3ccccc23)C(=O)N1C [Example 1003] ({CH2CO}-[Phe(4-F)][Pip]DP[Dap]E[Hyp]W[Dab][Trp(1-CH2CONHSO2Me)][NMeNle][NMeNle]L[Pen]-NH2; thioether N-14)	1 to 9.9 nM
CCCC[C@H]1C(=O)N(C)[C@@H](CCCC)C(=O)N[C@@H](C)C(=O)N[C@H](C(=O)NCC(N)=O)CSCC(=O)N[C@@H](Cc2ccc(O)cc2)C(=O)N(C)[C@@H](C)C(=O)N[C@@H](CC(N)=O)C(=O)N2CCC[C@H]2C(=O)N[C@@H](Cc2cnc[nH]2)C(=O)N[C@@H](CCC(N)=O)C(=O)N2C[C@H](O)C[C@H]2C(=O)N[C@@H](Cc2c[nH]c3ccccc23)C(=O)N[C@@H](CO)C(=O)N[C@@H](Cc2cccc3ccncc23)C(=O)N1C [Example 1271] ({CH2CO}-Y[NMeA]NPHQ[Hyp]WS[X16][NMeNle][NMeNle]ACG-NH2; thioether N-14)	10 to 99 nM
